# Laboratory results as given in patent US20240409585A1, “MACROCYCLIC IMMUNOMODULATORS” (priority 2021, published 2024).
# Bridge positions count the residues as written; N and C are the ends. Square brackets hold non-standard residues; d marks the D form. Peptide text beside a SMILES is read from it. * marks the point of attachment. Phe(4-COOH) = N[C@@H](Cc1ccc(C(=O)O)cc1)C(=O)O; Bip = N[C@@H](Cc1ccc(-c2ccccc2)cc1)C(=O)O; Phe(3-Me) = Cc1cccc(C[C@H](N)C(=O)O)c1; Bta = N[C@@H](Cc1csc2ccccc12)C(=O)O; Nva(4-oxo) = CC(=O)C[C@H](N)C(=O)O; Val(3-OH) = CC(C)(O)[C@H](N)C(=O)O; 4Pal = N[C@@H](Cc1ccncc1)C(=O)O; 3Thi = N[C@@H](Cc1ccsc1)C(=O)O; Cha = N[C@@H](CC1CCCCC1)C(=O)O; Cit = NC(=O)NCCC[C@H](N)C(=O)O; dDab = NCC[C@@H](N)C(=O)O; Carboxymethyl = O=C(O)C*; NMeA = CN[C@@H](C)C(=O)O; Nle = CCCC[C@H](N)C(=O)O; Pra = C#CC[C@H](N)C(=O)O; Dab = NCC[C@H](N)C(=O)O; Dap = NC[C@H](N)C(=O)O
# Target: T1, PE-labeled human PD-L1-Ig binding to Jurkat cell line over-expressing human PD-1 (Jurkat-PD-1) (Homo sapiens, UniProt Q15116)
# T1 construct: expressed in transfected cells; host or cells: Jurkat
# T1 sequence (Q15116 25-288): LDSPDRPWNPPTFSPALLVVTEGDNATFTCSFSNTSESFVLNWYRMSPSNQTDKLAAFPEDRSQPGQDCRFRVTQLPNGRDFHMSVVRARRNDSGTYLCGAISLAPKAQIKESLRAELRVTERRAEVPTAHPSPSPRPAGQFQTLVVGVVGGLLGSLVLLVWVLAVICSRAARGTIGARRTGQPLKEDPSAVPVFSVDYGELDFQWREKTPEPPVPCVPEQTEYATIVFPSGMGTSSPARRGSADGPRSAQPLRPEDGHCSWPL
# Assay: Jurkat-PD-1 Cell Binding High-Content Screening Assay (CBA): Method 1
# Settings: Jurkat-hPD-1 cells, PE-labeled PD-L1-Ig 20 nM final; read-out: Jurkat HPDL1 PD1 IC50 (uM) (Method 1)
row,IC50 [µM],Structure (SMILES)
1,0.05,Cc1cccc(C[C@@H]2NC(=O)[C@H](CC(=O)O)NC(=O)[C@H](Cc3ccc(O)cc3)NC(=O)[C@H](CN)NC(=O)CSC[C@@H](C(=O)N[C@@H](C)C(N)=O)NC(=O)[C@H]([C@@H](C)O)NC(=O)[C@H](C(C)C)NC(=O)[C@H](CC(C)C)NC(=O)[C@H](CCN)NC(=O)[C@@H](CC(C)C)NC(=O)[C@H](C)N(C)C(=O)[C@H](CCCNC(N)=O)NC(=O)[C@H](Cc3ccc(-c4ccccc4)cc3)NC(=O)[C@H](C(C)C)NC2=O)c1 [Compound 1422] ({CH2CO}-[Dap]YD[Phe(3-Me)]V[Bip][Cit][NMeA][dL][Dab]LVTCA-NH2; thioether N-14)
2,0.01,CC(C)C[C@@H]1NC(=O)[C@H](Cc2c[nH]c3ccccc23)NC(=O)[C@H](CC(=O)O)NC(=O)[C@H](Cc2ccncc2)NC(=O)[C@H](Cc2ccc(OCC(=O)O)cc2)NC(=O)CSC[C@@H](C(=O)N[C@H](CCN)C(N)=O)NC(=O)[C@H]([C@@H](C)O)NC(=O)[C@H](C(C)C)NC(=O)[C@H](CC2CCCCC2)NC(=O)[C@H](CCN)NC(=O)[C@@H](CC(C)C)NC(=O)[C@H](C)N(C)C(=O)[C@H](C(C)C)NC(=O)[C@H](Cc2ccc(-c3ccccc3)cc2)NC1=O [Compound 1904] ({CH2CO}-Y(Carboxymethyl)[4Pal]DWL[Bip]V[NMeA][dL][Dab][Cha]VTC[dDab]-NH2; thioether N-14)
3,0.07,CC(C)C[C@H]1NC(=O)[C@H](C)N(C)C(=O)[C@H](Cc2ccc(OCC(=O)O)cc2)NC(=O)[C@H](Cc2ccc(-c3ccccc3)cc2)NC(=O)[C@H](Cc2ccc(C(=O)O)cc2)NC(=O)[C@H](Cc2c[nH]c3ccccc23)NC(=O)[C@H](CC(=O)O)NC(=O)[C@H](Cc2ccc(OCC(=O)O)cc2)NC(=O)[C@H](Cc2ccsc2)NC(=O)CSC[C@@H](C(=O)N[C@@H](CCN)C(N)=O)NC(=O)[C@H](CO)NC(=O)[C@H](C(C)(C)O)NC(=O)[C@H](CC2CCCCC2)NC(=O)[C@H](CC(N)=O)NC1=O [Compound 2131] ({CH2CO}-[3Thi]Y(Carboxymethyl)DW[Phe(4-COOH)][Bip]Y(Carboxymethyl)[NMeA][dL]N[Cha][Val(3-OH)]SC[Dab]-NH2; thioether N-14)
4,0.08,CCCC[C@@H]1NC(=O)[C@H](CCCNC(=N)N)NC(=O)[C@@H](CC(C)C)NC(=O)[C@H](C)N(C)C(=O)[C@H](C(C)C)NC(=O)[C@H](Cc2ccc(-c3ccccc3)cc2)NC(=O)[C@H](C(C)C)NC(=O)[C@H](Cc2c[nH]c3ccccc23)NC(=O)[C@H](CC(=O)O)NC(=O)[C@H](Cc2ccc(O)cc2)NC(=O)[C@H](Cc2ccc(OCC(=O)O)cc2)NC(=O)CSC[C@@H](C(=O)N[C@@H](C)C(N)=O)NC(=O)[C@H]([C@@H](C)O)NC(=O)[C@H](C(C)C)NC1=O [Compound 1501] ({CH2CO}-Y(Carboxymethyl)YDWV[Bip]V[NMeA][dL]R[Nle]VTCA-NH2; thioether N-14)
5,0.01,C#CC[C@H](NC(=O)[C@@H](C)NC(=O)[C@@H]1CSCC(=O)N[C@@H](Cc2c[nH]cn2)C(=O)N[C@@H](Cc2ccc(OCC(=O)O)cc2)C(=O)N[C@@H](CC(=O)O)C(=O)N[C@@H](Cc2c[nH]c3ccccc23)C(=O)N[C@@H](C(C)C)C(=O)N[C@@H](Cc2ccc(-c3ccccc3)cc2)C(=O)N[C@@H](C(C)C)C(=O)N(C)[C@@H](C)C(=O)N[C@H](CC(C)C)C(=O)N[C@@H](CCN)C(=O)N[C@@H](CC2CCCCC2)C(=O)N[C@@H](C(C)(C)O)C(=O)N[C@@H](CO)C(=O)N1)C(=O)O [Compound 1943] ({CH2CO}-HY(Carboxymethyl)DWV[Bip]V[NMeA][dL][Dab][Cha][Val(3-OH)]SC[dA][Pra]-OH; thioether N-14)
6,0.21,CC(=O)C[C@@H]1NC(=O)CSC[C@@H](C(=O)NCC(N)=O)NC(=O)[C@H](CO)NC(=O)[C@H](C(C)C)NC(=O)[C@H](CC(C)C)NC(=O)[C@H](CCCNC(=N)N)NC(=O)[C@H](Cc2csc3ccccc23)NC(=O)[C@H](C)N(C)C(=O)[C@H](CCCNC(=N)N)NC(=O)[C@H](Cc2ccc(-c3ccccc3)cc2)NC(=O)[C@H](C(C)C)NC(=O)[C@H](Cc2c[nH]c3ccccc23)NC(=O)[C@H](CC(=O)O)NC(=O)[C@H](Cc2ccc(O)cc2)NC1=O [Compound 1027] ({CH2CO}-[Nva(4-oxo)]YDWV[Bip]R[NMeA][Bta]RLVSCG-NH2; thioether N-14)
